Results: the NIST ThermoML archive (doi:10.1016/j.fluid.2014.10.029)
± gives the expanded uncertainty stated by the source.

Settings: for mass density: 101.33 kPa, Liquid, Buoyancy - hydrostatic balance with magnetic suspension - one sinker

CCCCCn1cc[n+](C)c1.F[P-](F)(F)(F)(F)F [1-methyl-3-pentylimidazolium hexafluorophosphate]
surface tension liquid-gas [mN/m]
Settings	Ring tensiometer	Wilhelmy plate
262.89 K	43.04 ± 0.6	–
268.06 K	42.78 ± 0.59	–
273.2 K	–	42.46 ± 0.1
277.73 K	–	42.19 ± 0.1
277.78 K	42.23 ± 0.59	–
283.1 K	41.97 ± 0.59	–
283.17 K	–	41.95 ± 0.1
288.28 K	–	41.53 ± 0.1
288.29 K	41.76 ± 0.59	–
292.81 K	41.54 ± 0.58	41.49 ± 0.1
298.19 K	–	41.24 ± 0.1
298.2 K	41.35 ± 0.58	–
303.11 K	40.96 ± 0.58	–
303.12 K	–	40.94 ± 0.1
308.14 K	–	40.68 ± 0.1
308.16 K	40.75 ± 0.58	–
313.06 K	40.41 ± 0.57	40.4 ± 0.1
317.95 K	–	40.17 ± 0.1
317.98 K	40.23 ± 0.57	–
323.19 K	40.04 ± 0.57	–
323.2 K	–	39.86 ± 0.1
328.3 K	–	39.63 ± 0.1
328.37 K	39.69 ± 0.57	–
333.51 K	39.41 ± 0.56	–
333.52 K	–	39.36 ± 0.1
338.58 K	39.09 ± 0.56	–
338.6 K	–	39.1 ± 0.1
342.99 K	38.8 ± 0.56	–
343 K	–	38.86 ± 0.1
348.07 K	38.64 ± 0.56	–
348.11 K	–	38.64 ± 0.1
353.27 K	38.38 ± 0.55	–
353.3 K	–	38.4 ± 0.1
357.97 K	–	38.11 ± 0.1
358.34 K	38.1 ± 0.55	–
362.98 K	–	37.85 ± 0.1

Settings	mass density [kg/m3]
267.86 K	1351.91 ± 1.4
273.05 K	1348.4 ± 1.4
283.12 K	1339.58 ± 1.4
288.38 K	1335.51 ± 1.4
292.83 K	1332.19 ± 1.4
298.17 K	1328.15 ± 1.4
303.2 K	1324.24 ± 1.4
308.22 K	1318.91 ± 1.4
313.1 K	1315.32 ± 1.4
317.98 K	1311.51 ± 1.4
323.18 K	1307.37 ± 1.4
328.4 K	1303.77 ± 1.4
333.5 K	1299.9 ± 1.4
338.86 K	1295.93 ± 1.4
342.93 K	1292.1 ± 1.4
348 K	1288.64 ± 1.4
353.25 K	1284.49 ± 1.4
358.27 K	1281.15 ± 1.4
362.73 K	1277.18 ± 1.4

CCCn1cc[n+](C)c1.F[P-](F)(F)(F)(F)F [1-methyl-3-propylimidazolium hexafluorophosphate]
surface tension liquid-gas [mN/m]
Settings	Ring tensiometer	Wilhelmy plate
293.21 K	–	48.34 ± 0.26
293.23 K	47.98 ± 1.1	–
298.2 K	–	47.99 ± 0.26
298.23 K	47.77 ± 1.1	–
303.01 K	–	47.68 ± 0.26
303.04 K	48.03 ± 1.1	–
308.2 K	–	47.36 ± 0.26
308.21 K	47.15 ± 1.1	–
313.17 K	–	47.06 ± 0.26
313.22 K	47.18 ± 1.1	–
318.07 K	–	46.74 ± 0.25
318.17 K	46.99 ± 1.1	–
323.11 K	–	46.4 ± 0.25
323.22 K	46.76 ± 1.1	–
328.22 K	46.09 ± 1.1	–
328.25 K	–	46.06 ± 0.25
333.39 K	45.83 ± 1.1	–
333.45 K	–	45.73 ± 0.25
338.46 K	45.38 ± 1.1	45.41 ± 0.25
343.28 K	44.84 ± 1.1	–
343.3 K	–	45.14 ± 0.25
348.2 K	44.8 ± 1.1	–
348.25 K	–	44.78 ± 0.25
352.68 K	–	44.5 ± 0.24
352.76 K	44.38 ± 1.1	–
358.22 K	43.88 ± 1.1	–
358.24 K	–	44.23 ± 0.24
364.96 K	–	43.78 ± 0.24
365.07 K	43.64 ± 1.1	–

CCCCCCCn1cc[n+](C)c1.F[P-](F)(F)(F)(F)F [1-heptyl-3-methylimidazolium hexafluorophosphate]
Settings	mass density [kg/m3]
292.97 K	1266.43 ± 0.81
298.16 K	1262.6 ± 0.81
303.16 K	1258.82 ± 0.81
308.22 K	1254.84 ± 0.81
313.19 K	1250.97 ± 0.81
318.05 K	1247.4 ± 0.81
323.09 K	1243.43 ± 0.81
328.16 K	1239.71 ± 0.81
333.36 K	1235.76 ± 0.81
337.82 K	1232.14 ± 0.81
343.31 K	1228.66 ± 0.81
348.05 K	1224.36 ± 0.81
352.96 K	1220.98 ± 0.81
357.92 K	1217.32 ± 0.81
364.45 K	1212.58 ± 0.81

surface tension liquid-gas [mN/m]
Settings	Ring tensiometer	Wilhemly plate
293.23 K	36.05 ± 0.57	–
293.26 K	–	36.06 ± 0.14
298.15 K	35.87 ± 0.57	35.89 ± 0.14
303.13 K	35.6 ± 0.56	–
303.15 K	–	35.6 ± 0.14
308.2 K	35.31 ± 0.56	–
308.21 K	–	35.41 ± 0.14
313.22 K	–	35.13 ± 0.14
313.26 K	35.14 ± 0.56	–
318.05 K	–	34.87 ± 0.14
318.08 K	34.74 ± 0.56	–
323.21 K	34.65 ± 0.55	–
323.22 K	–	34.65 ± 0.14
328.1 K	–	34.39 ± 0.14
328.18 K	34.3 ± 0.55	–
333.37 K	34.07 ± 0.55	34.13 ± 0.14
337.89 K	–	33.91 ± 0.14
338.05 K	33.75 ± 0.55	–
343.31 K	33.7 ± 0.55	–
343.34 K	–	33.68 ± 0.14
348.16 K	–	33.32 ± 0.14
348.26 K	33.24 ± 0.54	–
353.04 K	–	33.18 ± 0.14
357.99 K	33.04 ± 0.54	–
358.04 K	–	32.96 ± 0.14
364.54 K	32.62 ± 0.54	–
364.61 K	–	32.67 ± 0.14

CCCCn1cc[n+](C)c1C.F[P-](F)(F)(F)(F)F [1-butyl-2,3-dimethylimidazolium hexafluorophosphate]
Wilhelmy plate
Settings	surface tension liquid-gas [mN/m]
298.17 K	44.42 ± 0.13
313.07 K	43.73 ± 0.13
323.27 K	43.16 ± 0.13
333.13 K	42.6 ± 0.13
338.38 K	42.38 ± 0.13
343.51 K	42.13 ± 0.13
348.43 K	41.89 ± 0.13
353.08 K	41.68 ± 0.13
358.76 K	41.41 ± 0.13
364.84 K	41.11 ± 0.13

CCCC[n+]1cccc(C)c1.F[P-](F)(F)(F)(F)F [1-butyl-3-methylpyridinium hexafluorophosphate]
Wilhelmy plate
Settings	surface tension liquid-gas [mN/m]
323.02 K	43.24 ± 0.13
327.6 K	42.96 ± 0.13
333.18 K	42.58 ± 0.13
338.24 K	42.24 ± 0.13
343.75 K	41.89 ± 0.13
348.09 K	41.63 ± 0.13
353.61 K	41.3 ± 0.13
358.09 K	40.94 ± 0.13
364.84 K	40.51 ± 0.13

CCCCCCCCCn1cc[n+](C)c1.F[P-](F)(F)(F)(F)F [1-nonyl-3-methylimidazolium hexafluorophosphate]
surface tension liquid-gas [mN/m]
Settings	Ring tensiometer	Wilhelmy plate
288.14 K	–	33.2 ± 0.08
288.18 K	33.64 ± 1.5	–
293.07 K	33.26 ± 1.5	32.96 ± 0.08
298.13 K	32.86 ± 1.5	–
298.16 K	–	32.7 ± 0.08
303.11 K	–	32.48 ± 0.08
303.12 K	32.8 ± 1.5	–
308.11 K	–	32.27 ± 0.08
308.13 K	32.71 ± 1.5	–
313.16 K	–	31.99 ± 0.08
313.19 K	32.4 ± 1.5	–
318.03 K	–	31.76 ± 0.08
318.06 K	32.17 ± 1.5	–
323.07 K	–	31.51 ± 0.08
323.1 K	31.89 ± 1.5	–
328 K	31.7 ± 1.5	–
328.04 K	–	31.25 ± 0.08
332.93 K	31.43 ± 1.5	–
332.95 K	–	30.99 ± 0.08
338.37 K	–	30.75 ± 0.08
338.49 K	31.11 ± 1.5	–
343.34 K	–	30.5 ± 0.08
343.59 K	30.88 ± 1.5	–
347.87 K	–	30.23 ± 0.08
347.9 K	30.57 ± 1.4	–
352.81 K	–	29.98 ± 0.08
352.87 K	30.32 ± 1.4	–
357.85 K	–	29.76 ± 0.08
358.12 K	30.14 ± 1.4	–
365.11 K	29.71 ± 1.4	–
365.22 K	–	29.4 ± 0.08

Settings	mass density [kg/m3]
293.11 K	1216.29 ± 0.93
298.18 K	1212.6 ± 0.93
303.15 K	1209.57 ± 0.93
308.14 K	1205.42 ± 0.93
313.21 K	1201.39 ± 0.93
318.08 K	1197.66 ± 0.93
323.13 K	1193.94 ± 0.93
328.02 K	1190.39 ± 0.93
332.95 K	1186.82 ± 0.93
338.45 K	1183.02 ± 0.93
343.45 K	1179.31 ± 0.93
348.02 K	1176.28 ± 0.93
352.94 K	1172.76 ± 0.93
358.11 K	1168.91 ± 0.93
365.13 K	1163.68 ± 0.93
